The target of one data set is T1, SARS-Cov-2 3CLpro (Severe acute respiratory syndrome coronavirus 2, UniProt P0DTD1).
T1 construct: SARS-Cov-2 3CLpro and HRV3C Duplex Assay
The data set is described as follows: SARS-Cov-2 3CLpro and HRV3C duplex assay (SAMDI-MS): 3CLpro. Format: biochemical. Conditions: 3CLpro, duplex assay, 30 mins preincubation; class symbols; read-out: SARS-Cov-2 IC50.

Data set [1] has as its system human beta-coronavirus OC43. Description: OC43 coronavirus assay in HeLa cells (cytopathic effect, cell-titer-glo). Format: cell-based. Conditions: Betacoronavirus 1, 144 h; OC43 in HeLa cells, 6 days at 33° C.; class symbols; read-out: EC50. On the technique in general: Protection from cytopathic effect is a common read-out in antiviral testing.
The target of a further data set is T2, human cathepsin L (Homo sapiens, UniProt P07711).
T2 construct: purchased R&D Systems
T2 sequence (P07711 114-333): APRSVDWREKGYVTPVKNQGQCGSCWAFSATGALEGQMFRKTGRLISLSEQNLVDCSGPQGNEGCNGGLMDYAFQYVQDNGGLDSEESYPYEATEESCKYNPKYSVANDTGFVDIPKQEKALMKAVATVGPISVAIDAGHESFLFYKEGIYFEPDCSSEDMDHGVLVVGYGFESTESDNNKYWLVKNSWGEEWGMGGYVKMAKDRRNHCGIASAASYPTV
The data set is described as follows: Cathepsin L assay (Z-FR-AMC fluorescence). The class given is biochemical. Conditions: 10 pM human cathepsin L, 30 mins preincubation; class symbols. Here is the method:
For the cathepsin L assay, 10 pM of human cathepsin L (R&D Systems; Minneapolis, MN) was preincubated for 30 mins with test compounds. Reactions were initiated by the addition of a peptide substrate Z-FR-AMC (final concentration 2 μM, Anaspec; Fremont, CA). Fluorescence was measured at 2-minute intervals for 30 mins using a 355/460 excitation/emission filter module on an Envision plate reader (Perkin Elmer; Waltham, MA). The IC50 values were calculated for each assay by fitting the curves using a four-parameter equation in GraphPad Prism.

Data set [2] has as its system SARS-CoV-2-GHB-03021/2020. The data set is described as follows: microbe, parasite or virus in culture. Format: cell-based. Conditions: Severe acute respiratory syndrome coronavirus 2, Vero C1008, 96 h; read-out: VeroE6 + CP (EC50).
For another data set, the target named is T3, HRV3C (Human rhinovirus 14, UniProt P03303).
T3 construct: SARS-Cov-2 3CLpro and HRV3C Duplex Assay
T3 sequence (P03303 1538-1719): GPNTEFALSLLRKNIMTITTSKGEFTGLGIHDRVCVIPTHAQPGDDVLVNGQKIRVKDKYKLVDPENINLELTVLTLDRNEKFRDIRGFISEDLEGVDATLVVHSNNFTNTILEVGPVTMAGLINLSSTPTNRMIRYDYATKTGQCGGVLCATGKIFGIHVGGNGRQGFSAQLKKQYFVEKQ
The data set is described as follows: biochemical. Conditions: read-out: HRV IC50.

Data set [3] can be described thus: Cytotoxicity plates without OC43 virus in HeLa cells. Format: cell-based. Conditions: human, HeLa cells (uninfected), class symbols. Here is the method: The human beta-coronavirus OC43 was purchased from ATCC (Manassas, VA) and propagated using HCT-8 human colorectal epithelial cells (ATCC). HeLa human cervical epithelial cells (ATCC) were used as susceptible host cell lines and were cultured using EMEM media, supplemented with 10% fetal bovine serum (FBS), 1% (v/v) penicillin/streptomycin (P/S), 1% (v/v) HEPES and 1% (v/v) cellgro Glutagro™ supplement (all Corning, Manassas, VA) at 37° C. For the OC43 antiviral assay, 1.5×10^4 HeLa cells per well were plated in 100 μL complete media in white 96-well plates with clear bottoms at 37° C. for up to 24 h to facilitate attachment and allow cells to recover from seeding stresses. Next day, the cell culture medium was removed. Serially diluted compounds in 100 μL assay media (EMEM, 2% FBS, 1% P/S, 1% cellgro Glutagro™ supplement, 1% HEPES) were added to the cells and incubated for 4H at 37° C. in a humidified 5% CO2 incubator. 100 μL of OC43 virus stock was diluted to a concentration known to produce optimal cytopathic effect, inducing 80-90% reduction in cell viability. 96-well plates were incubated for 6 (HeLa) days at 33° C.; each plate contains uninfected control wells as well as virus-infected wells that were not treated with compound. Cytotoxicity plates without the addition of OC43 virus were carried out in parallel. At the end of the incubation period, 100 μL cell culture supernatant was replaced with 100 μL cell-titer-glo reagent (Promega, Madison, WI) and incubated for at least 10 min at rt prior to measuring luminescence. Luminescence was measured on a Perkin Elmer (Waltham, MA) Envision plate reader. Antiviral % inhibition was calculated as follows: [(Compound treated cells infected sample)−(no compound infected control)]/[(Uninfected control)−(no compound infected control)]*100; Using GraphPad (San Diego, CA) prism software version 8.3.1, the antiviral dose-response plot was generated as a sigmoidal fit, log(inhibitor) vs response-variable slope (four parameters) model and the EC50 was calculated which is the predicted compound concentration corresponding to a 50% inhibition of the viral cytopathic effect.

The mark [4] stands for this setting: HRV3C, duplex assay, 30 mins preincubation, class symbols.

Molecules are shown by their SMILES. Where two headings read alike, the source gives them in different places.

On to `O=C(NC1CC1)C(=O)C(C[C@@H]1CCNC1=O)NC(=O)[C@@H]1[C@@H]2C[C@@H](CC23CC3)N1C(=O)c1cc2ccccc2s1` (stereo partly drawn) [Compound 25, 3-[(1R,4S,6S)-5-(1-benzothiophene-2-carbonyl)-5-azaspiro[bicyclo[2.2.1]heptane-2,1′-cyclopropan]-6-ylformamido]-N-cyclopropyl-2-oxo-4-[(3S)-2-oxopyrrolidin-3-yl]butanamide], for which the IC50 was 20 to 200 nM at SARS-Cov-2 3CLpro, at least 10000 nM on human cathepsin L and 200 to 2000 nM on HRV3C (setting [4]). Besides, the concentration giving a half-maximal response (EC50) in data set [1] and in data set [2] was 1000 to 10000 nM in each case. In data set [3], this compound gave a CC50 at 6 days of at least 100000 nM.

As for `O=C(NC1CC1)C(=O)C(C[C@@H]1CCNC1=O)NC(=O)[C@@H]1[C@@H]2C[C@@H](CC23CC3)N1C(=O)c1nc(-c2ccccc2)cs1` (stereo partly drawn) [Compound 26, N-cyclopropyl-2-oxo-4-[(3S)-2-oxopyrrolidin-3-yl]-3-[(1R,4S,6S)-5-(4-phenyl-1,3-thiazole-2-carbonyl)-5-azaspiro[bicyclo[2.2.1]heptane-2,1′-cyclopropan]-6-ylformamido]butanamide], the IC50 at SARS-Cov-2 3CLpro is 200 to 2000 nM; against human cathepsin L, at least 10000 nM; on HRV3C (setting [4]), 200 to 2000 nM. Further, the EC50 in data set [1] and in data set [2] was 1000 to 10000 nM each time. The compound further came in with a CC50 at 6 days in data set [3] of at least 100000 nM.

Turning to `CC(C)n1c(C(=O)N2CCC3(CC3)C[C@H]2C(=O)N[C@@H](C[C@@H]2CCNC2=O)C(=O)C(=O)NC2CC2)cc2ccccc21` [Compound 27], the 50% inhibitory concentration (IC50) on SARS-Cov-2 3CLpro was below 20 nM; on human cathepsin L it was at least 10000 nM; at HRV3C (setting [4]), 200 to 2000 nM. In addition, the figures for the EC50 in data set [1] and in data set [2] were 100 to 1000 nM and below 1000 nM, respectively. The compound also had a CC50 at 6 days in data set [3] of at least 100000 nM.

With `O=C(NC1CC1)C(=O)[C@H](C[C@@H]1CCNC1=O)NC(=O)[C@@H]1CC2(CCN1C(=O)c1csc3ccccc13)CC2` [Compound 28], the results for the IC50 at SARS-Cov-2 3CLpro, against human cathepsin L and on HRV3C (setting [4]) were below 20 nM, at least 10000 nM and 20 to 200 nM, respectively. Besides, the EC50 in data set [1] is 1000 to 10000 nM; in data set [2], below 1000 nM. The CC50 at 6 days in data set [3] is at least 100000 nM.

With `COc1ccc2cc(C(=O)N3CCC4(CC4)C[C@H]3C(=O)N[C@@H](C[C@@H]3CCNC3=O)C(=O)C(=O)NC3CC3)n(C)c2c1` [Compound 29], the results for the IC50 at SARS-Cov-2 3CLpro, on human cathepsin L and at HRV3C (setting [4]) were below 20 nM, at least 10000 nM and 2000 to 20000 nM, respectively. Besides, the values for the EC50 in data set [1] and in data set [2] were 100 to 1000 nM and below 1000 nM, respectively. In data set [3], the CC50 at 6 days is at least 100000 nM.

Turning to `Cc1ccc2cc(C(=O)N3CCC4(CC4)C[C@H]3C(=O)N[C@@H](C[C@@H]3CCNC3=O)C(=O)C(=O)NC3CC3)n(C)c2c1` [Compound 30], the results for the IC50 on SARS-Cov-2 3CLpro, against human cathepsin L and at HRV3C were 20 to 200 nM, at least 10000 nM and above 10000 nM, respectively. The concentration for a half-maximal effect (EC50) in data set [1] was 100 to 1000 nM; in data set [2], below 1000 nM. The CC50 at 6 days in data set [3] is at least 100000 nM.

Take `Cn1c(C(=O)N2CCC3(CC3)C[C@H]2C(=O)N[C@@H](C[C@@H]2CCNC2=O)C(=O)C(=O)NC2CC2)cc2ccc(Cl)cc21` [Compound 31]: the IC50 on SARS-Cov-2 3CLpro is below 20 nM; on human cathepsin L, at least 10000 nM; at HRV3C (setting [4]), 2000 to 20000 nM. Further, the values for the EC50 in data set [1] and in data set [2] were 100 to 1000 nM and below 1000 nM, respectively. For the same compound, the CC50 at 6 days in data set [3] is at least 100000 nM.

Consider `O=C(NC1CC1)C(=O)[C@H](C[C@@H]1CCNC1=O)NC(=O)[C@@H]1CC2(CCN1C(=O)[C@@H]1CCCc3ccccc31)CC2` [Compound 32], for which the IC50 on SARS-Cov-2 3CLpro is 20 to 200 nM; at human cathepsin L, at least 10000 nM; on HRV3C (setting [4]), 200 to 2000 nM. Further, the half-maximal effective concentration (EC50) is 1000 to 10000 nM in data set [1] and below 1000 nM in data set [2]. For the same compound, the CC50 at 6 days in data set [3] was at least 100000 nM.

On to `O=C(NC1CC1)C(=O)[C@H](C[C@@H]1CCNC1=O)NC(=O)[C@@H]1CC2(CCN1C(=O)[C@H]1CCCc3ccccc31)CC2` [Compound 33], for which the IC50 was 20 to 200 nM on SARS-Cov-2 3CLpro, at least 10000 nM against human cathepsin L and 200 to 2000 nM on HRV3C (setting [4]). Besides, the EC50 is 1000 to 10000 nM in data set [1] and below 1000 nM in data set [2]. The compound also showed a CC50 at 6 days in data set [3] of at least 100000 nM.

In general, IC50 refers to the concentration needed to halve the response being measured. As usually defined, the EC50 is the concentration needed to bring the measured effect to its halfway point. A word on the CC50: it is the concentration giving 50% cytotoxicity. A high value points to better tolerance by the cells.
